Here are results for 29 compounds from patent US8722681B2, “N-sulfonyl thiazolylpiperazine derivatives and related N-sulfonyl heterocyclic derivatives for the treatment of neuro degenerative diseases” (NV reMYND, priority 2007, dated 2014).

The assay has as its system M17-SYNwt cells. In words: α-synuclein cytotoxicity assay (LDH leakage from paraquat-treated M17-SYNwt cells). The format is cell-based, human. Conditions: for EC50: Homo sapiens, M17-SYNwt cells, paraquat 32 mM, 40 hours, LDH activity; for % I (percentage inhibition) / % inh. (percentage inhibition): inhibition of synuclein toxicity at most effective concentration relative to untreated paraquat cells. The text has this: An α-synuclein expression plasmid was constructed by sub-cloning the NcoI/XhoI fragment from 212T-SYN(WT) (Griffioen et al., Biochem Biophys Acta (2006) 1762(3):312-318) containing the cDNA of human wild type α-synuclein correspondingly into a standard mammalian expression vector pcDNA3.1 resulting in plasmid pcDNA3.1-SYNwt. Plasmid pcDNA3.1 and pcDNA3.1-SYNwt were transfected to human neuroblastoma cells (ATCC No. CRL-2267) and independent clonal lines with the plasmids stably integrated into the genome were selected. […] Over-expression of α-synuclein in M17-SYNwt cell lines was confirmed by Western analysis.
Due to the high levels of α-synuclein M17-SYNwt cells are exquisitely sensitivity to paraquat, a well-known risk factor of synuclein-dependent neuronal degeneration. In degenerated or dead cells lactate dehydrogenase (LDH) is leaked out of the cells into the extracellular environment due to a loss of plasma-membrane integrity. This principle was used to determine cytotoxicity by quantifying the level of leaked LDH into the growth medium.
The detailed method for determining α-synuclein cytotoxicity was as follows: From appropriate precultures of M17 and M17-SYN cells were seeded at 50000 cells/cm^2 in Optimem Reduced Serum without phenol red (InVitrogen, Cat. 31985-047) supplemented with 5% fetal calf serum, 1 mM sodium pyruvate, 1×non-essential amino acids, 500 μg/ml G418 0.5×antibiotic/antimycotic. After 3 hours of incubation at 37° C./5% CO2 paraquat was added to the cells (final concentration of 32 mM), together with the test compound and the cells were further incubated for 40 hours. Subsequently, LDH activity was determined using Promega Cytotox 96 Non-Radioactive cytotoxicity assay, (Cat. G1780) according the supplier's instructions.
This α-synuclein expressing neuroblastoma cells made it possible to assess the ability of novel compounds to counteract α-synuclein cytotoxicity. […] Since this method monitors leaked LDH from degenerated or dead cells only non-toxic compounds will be identified as active inhibitors of α-synuclein-mediated cytotoxicity. Lack of toxicity is an important characteristic for compounds to be used as a medicament to patients in need. A compound was considered to be active in this test when it inhibits α-synuclein cytotoxicity by more than 25% relative to untreated M17-SYNwt cells at a concentration of 20 μg/mL or lower. In the experiments, the control group consisted of M17-SYNwt cells treated with DMSO, the untreated paraquat group consisted of M17-SYNwt cells treated with paraquat and DMSO, and the treated paraquat group consisted of M17-SYNwt cells treated with paraquat and the test compound dissolved in DMSO.
Percent inhibition was calculated as the synuclein toxicity inhibition by the compound in treated paraquat cells, relative to the synuclein cytotoxicity in untreated paraquat cells.
The compounds from table 1 were screened for activity using the α-synuclein cytotoxicity assay as described above. Dose responses were carried out on all compounds found to be active (10 point curves in duplicate).
Background: LDH leaks from cells whose membrane has failed.

In the case of `COc1ccc(S(=O)(=O)N2CCN(c3nc(-c4ccc(F)cc4)cs3)CC2)cc1` [Compound 1, 1-[4-(4-fluorophenyl)-1,3-thiazol-2-yl]-4-[(4-methoxyphenyl)-sulfonyl]-piperazine], for the setting “Table 1”, it took 24 nM to reach a half-maximal effect (EC50) and the “% I (percentage inhibition)” value came out at 100%.

With `Cc1ccc(S(=O)(=O)N2CCN(c3nc(-c4ccc(F)cc4)cs3)CC2)cc1` [Compound 2], where the note is “Table 1”, it took 160 nM to reach a half-maximal effect (EC50) and the “% I (percentage inhibition)” value is on record as 70%.

On to `CCCc1sc(N2CCN(S(=O)(=O)c3ccc(C)cc3)CC2)nc1-c1ccccc1` [Compound 4], for which, where the note is “Table 1”, the response was half-maximal at 203 nM (EC50) and the “% I (percentage inhibition)” value came to 61%.

As for `COc1cccc(-c2csc(N3CCN(S(=O)(=O)c4ccc(F)cc4)CC3)n2)c1` [Compound 5], where the note is “Table 1”, the midpoint of the response, the EC50, lay at 216 nM and the “% I (percentage inhibition)” value is 90%.

For the compound `O=S(=O)(c1ccc(Cl)cc1)N1CCN(c2nc(-c3ccc(F)cc3)cs2)CC1` [Compound 6], under “Table 1”, the EC50 (as a rule, the concentration at which the effect is half-maximal) worked out at 300 nM and the “% I (percentage inhibition)” value is reported as 88%.

As to `O=S(=O)(c1ccc(Br)cc1)N1CCN(c2nc(-c3ccc(F)cc3)cs2)CC1` [Compound 7], where the note is “Table 1”, the EC50 was 327 nM and the “% I (percentage inhibition)” value is recorded as 94%.

Turning to `O=S(=O)(C1CCCCC1Br)N1CCN(c2nc(-c3ccc(F)cc3)cs2)CC1` (stereo not shown) [Compound 8], under “Table 1”, it took 568 nM to reach a half-maximal effect (EC50) and the “% I (percentage inhibition)” value is 88%.

In the case of `O=S(=O)(c1ccc(F)cc1)N1CCN(c2nc(-c3ccc(F)cc3)cs2)CC1` [Compound 9], for the setting “Table 1”, the response was half-maximal at 833 nM (EC50) and the “% I (percentage inhibition)” value turned out to be 81%.

`COc1ccc(S(=O)(=O)N2CCN(c3nc(Cc4cccs4)cs3)CC2)cc1` [Compound 10, 1-(4-methoxyphenylsulfonyl)-4-(4-(thiophen-2-ylmethyl)thiazol-2-yl)piperazine]: under “Table 2”, the EC50 came out at 12 nM and the “% inh. (percentage inhibition)” value was determined as 93%.

Take `COc1ccc(S(=O)(=O)N2CCN(c3nc(Cc4cccc(C#N)c4)cs3)CC2)cc1` [Compound 12, 3-((2-(4-(4-methoxyphenylsulfonyl)piperazin-1-yl)thiazol-4-yl)methyl)benzonitrile]: under “Table 2”, the EC50 came to 3.2 nM and the “% inh. (percentage inhibition)” value was determined as 66%.

With `COc1ccc(S(=O)(=O)N2CCN(c3nc(Cc4cccc(F)c4)cs3)CC2)cc1` [Compound 13, 1-(4-(3-fluorobenzyl)thiazol-2-yl)-4-(4-methoxyphenylsulfonyl)piperazine], under “Table 2”, it took 11.5 nM to reach a half-maximal effect (EC50) and the “% inh. (percentage inhibition)” value stood at 92%.

In the case of `COc1ccc(Cc2csc(N3CCN(S(=O)(=O)c4ccc(OC)cc4)CC3)n2)cc1` [Compound 14, 1-(4-(4-methoxybenzyl)thiazol-2-yl)-4-(4-methoxyphenylsulfonyl)piperazine], under “Table 2”, the EC50 was 46.6 nM and the “% inh. (percentage inhibition)” value stood at 90%.

As for `COc1ccc(S(=O)(=O)N2CCN(c3nc(Cc4ccccc4OC)cs3)CC2)cc1` [Compound 15, 1-(4-(2-methoxybenzyl)thiazol-2-yl)-4-(4-methoxyphenylsulfonyl)piperazine], under “Table 2”, the EC50 was found to be 17 nM and the “% inh. (percentage inhibition)” value is 71%.

Regarding `COc1cccc(Cc2csc(N3CCN(S(=O)(=O)c4ccccc4OC)CC3)n2)c1` [Compound 16, 1-(4-(3-methoxybenzyl)thiazol-2-yl)-4-(2-methoxyphenylsulfonyl)piperazine], under “Table 2”, the EC50 turned out to be 3590 nM and the “% inh. (percentage inhibition)” value came out at 76%.

On to `COc1cccc(Cc2csc(N3CCN(S(=O)(=O)c4cccc(OC)c4)CC3)n2)c1` [Compound 17, 1-(4-(3-methoxybenzyl)thiazol-2-yl)-4-(3-methoxyphenylsulfonyl)piperazine], for which, for the setting “Table 2”, a half-maximal response (EC50) required 4360 nM and the “% inh. (percentage inhibition)” value came out at 130%.

With `COc1ccc(S(=O)(=O)N2CCN(c3nc(Cc4ccc5c(c4)OCO5)cs3)CC2)cc1` [Compound 18, 1-(4-(benzo[d][1,3]dioxol-5-ylmethyl)thiazol-2-yl)-4-(4-methoxyphenylsulfonyl)piperazine], under “Table 2”, the EC50 was 22.8 nM and the “% inh. (percentage inhibition)” value is 19%.

For the compound `COc1cccc(Cc2csc(N3CCN(S(=O)(=O)c4ccc5c(c4)OCO5)CC3)n2)c1` [Compound 19, 1-(4-(3-methoxybenzyl)thiazol-2-yl)-4-(benzo[d][1,3]dioxol-5-ylsulfonyl)piperazine], where the note is “Table 2”, the EC50 amounted to 251 nM and the “% inh. (percentage inhibition)” value was 84%.

Turning to `COc1cccc(Cc2csc(N3CCN(S(=O)(=O)c4cccnc4)CC3)n2)c1` [Compound 20, 1-(4-(3-methoxybenzyl)thiazol-2-yl)-4-(pyridin-3-ylsulfonyl)piperazine], for the setting “Table 2”, the concentration for a half-maximal effect (EC50) was determined as 1720 nM and the “% inh. (percentage inhibition)” value was found to be 76%.

As for `COc1cccc(Cc2csc(N3CCN(S(=O)(=O)c4ccccn4)CC3)n2)c1` [Compound 21, 1-(4-(3-methoxybenzyl)thiazol-2-yl)-4-(pyridin-2-ylsulfonyl)piperazine], for the setting “Table 2”, it took 2440 nM to reach a half-maximal effect (EC50) and the “% inh. (percentage inhibition)” value is 116%.

`COc1cccc(Cc2csc(N3CCN(S(=O)(=O)c4ccsc4)CC3)n2)c1` [Compound 22, 1-(4-(3-methoxybenzyl)thiazol-2-yl)-4-(thiophen-3-ylsulfonyl)piperazine]: where the note is “Table 2”, the EC50 is 1000 nM and the “% inh. (percentage inhibition)” value was determined as 89%.

Take `COc1cccc(Cc2csc(N3CCN(S(=O)(=O)c4c(C)n[nH]c4C)CC3)n2)c1` [Compound 23, 1-(4-(3-methoxybenzyl)thiazol-2-yl)-4-(3,5-dimethyl-1H-pyrazol-4-ylsulfonyl)piperazine]: where the note is “Table 2”, the EC50 stood at 1290 nM and the “% inh. (percentage inhibition)” value was found to be 95%.

Regarding `COc1cccc(Cc2csc(N3CCN(S(=O)(=O)c4cccc5c4ccn5C)CC3)n2)c1` [Compound 24, 4-(4-(4-(3-methoxybenzyl)thiazol-2-yl)piperazin-1-ylsulfonyl)-1-methyl-1H-indole], for the setting “Table 2”, the EC50 was 1170 nM and the “% inh. (percentage inhibition)” value was found to be 82%.

Take `COc1cccc(Cc2csc(N3CCN(S(=O)(=O)c4cn(C)cn4)CC3)n2)c1` [Compound 26, 1-(4-(3-methoxybenzyl)thiazol-2-yl)-4-(1-methyl-1H-imidazol-4-ylsulfonyl)piperazine]: where the note is “Table 2”, the midpoint of the response, the EC50, lay at 870 nM and the “% inh. (percentage inhibition)” value worked out at 87%.

As to `COc1cccc(Cc2csc(N3CCN(S(=O)(=O)c4ccc(NC(C)=O)cc4)CC3)n2)c1` [Compound 27, N-(4-(4-(4-(3-methoxybenzyl)thiazol-2-yl)piperazin-1-ylsulfonyl)phenyl)acetamide], where the note is “Table 2”, the EC50 stood at 250 nM and the “% inh. (percentage inhibition)” value is on record as 91%.

Consider `COc1cccc(Cc2csc(N3CCN(S(=O)(=O)c4ccc(C)cc4)CC3)n2)c1` [Compound 28, 1-(4-(3-methoxybenzyl)thiazol-2-yl)-4-tosylpiperazine], for which, under “Table 2”, a half-maximal response (EC50) required 1890 nM and the “% inh. (percentage inhibition)” value came out at 165%.

Regarding `COc1cccc(Cc2csc(N3CCN(S(=O)(=O)c4ccc(C#N)cc4)CC3)n2)c1` [Compound 29, 4-(4-(4-(3-methoxybenzyl)thiazol-2-yl)piperazin-1-ylsulfonyl)benzonitrile], where the note is “Table 2”, a half-maximal effect (EC50) was put at 1270 nM and the “% inh. (percentage inhibition)” value came out at 42%.

As for `COc1cccc(Cc2csc(N3CCN(S(=O)(=O)c4ccc(F)cc4)CC3)n2)c1` [Compound 30, 1-(4-(3-methoxybenzyl)thiazol-2-yl)-4-(4-fluorophenylsulfonyl)piperazine], where the note is “Table 2”, the EC50 was 405 nM and the “% inh. (percentage inhibition)” value is recorded as 98%.

As to `COc1ccc(S(=O)(=O)N2CCC(c3nc(Cc4cccc(OC)c4)cs3)CC2)cc1` [Compound 31, 4-(4-(3-methoxybenzyl)thiazol-2-yl)-1-(4-methoxyphenylsulfonyl)piperidine], under “Table 2”, the EC50 is 6.6 nM and the “% inh. (percentage inhibition)” value came out at 66%.

Take `COc1ccc(S(=O)(=O)N2CCN(Cc3nc(Cc4cccc(OC)c4)cs3)CC2)cc1` [Compound 32, 1-((4-(3-methoxybenzyl)thiazol-2-yl)methyl)-4-(4-methoxyphenylsulfonyl)piperazine]: where the note is “Table 2”, the EC50 turned out to be 159 nM and the “% inh. (percentage inhibition)” value was 95%.
